Active and inactive are the calls of the source. The rule behind the calls is not given here.
Assays:
[1] = Induction of singlet oxygen production in CH3CN assessed as decrease in fluorescence intensity at 450 nm under photoirradiation with visible light and measured after 15 sec by DPBF based assay relative to control; type: functional; parameters: scale not given: the % may be the effect or the level left
[2] = Cytotoxicity against human HaCaT cells assessed as inhibition of cell growth incubated for 72 hrs under photoirradiation with 6 cool white lamps for 15 mins at 4,28 and 52 hrs after compound addition by MTT assay; type: toxicity, cell-based
[3] = Absorption property of compound in CH3CN assessed as maximal molar absorption coefficient by UV-vis spectrophotometer; type: physicochemical
[4] = Induction of singlet oxygen production in CH3CN assessed as singlet oxygen quantum yield at 450 nm under photoirradiation with visible light and measured after 15 to 60 sec by DPBF based assay; type: functional; conditions: time 15-60 sec
[5] = Induction of singlet oxygen production in CH3CN assessed as decrease in fluorescence intensity at 450 nm under photoirradiation with visible light and measured after 1 min by DPBF based assay relative to control; type: functional; parameters: scale not given: the % may be the effect or the level left
[6] = Emission property of compound in CH3CN assessed as maximal wavelength by […]; type: physicochemical
[7] = test system: MCF7; assay: Antiproliferative activity against human MCF7 cells assessed as inhibition of cell growth incubated for 72 hrs under dark condition by MTT assay; type: functional, cell-based; conditions: MCF7, 72 h
[8] = Fluorescence property of compound in CH3CN assessed as fluorescence quantum yield by spectrofluorometric analysis; type: physicochemical
[9] = Absorption property of compound in CH3CN assessed as maximal wavelength by UV-vis spectrophotometer; type: physicochemical
[10] = test system: HCT-116; assay: Antiproliferative activity against human HCT-116 cells assessed as inhibition of cell growth incubated for 72 hrs under dark condition by MTT assay; type: functional, cell-based; conditions: HCT-116, 72 h
[11] = test system: MCF7; assay: Antiproliferative activity against human MCF7 cells assessed as inhibition of cell growth incubated for 72 hrs under photoirradiation with 6 cool white lamps for 15 mins at 4,28 and 52 hrs after compound addition by MTT assay; type: functional, cell-based; conditions: MCF7, light or radiation study
[12] = test system: NCI-H460; assay: Antiproliferative activity against human NCI-H460 cells assessed as inhibition of cell growth incubated for 72 hrs under photoirradiation with 6 cool white lamps for 15 mins at 4,28 and 52 hrs after compound addition by MTT assay; type: functional, cell-based; conditions: NCI-H460, light or radiation study
[13] = test system: NCI-H460; assay: Antiproliferative activity against human NCI-H460 cells assessed as inhibition of cell growth incubated for 72 hrs under dark condition by MTT assay; type: functional, cell-based; conditions: NCI-H460, 72 h
[14] = Induction of singlet oxygen production in CH3CN assessed as decrease in fluorescence intensity at 450 nm under photoirradiation with visible light and measured after 45 sec by DPBF based assay relative to control; type: functional; parameters: scale not given: the % may be the effect or the level left
[15] = test system: HCT-116; assay: Induction of ROS generation in human HCT-116 cells at 5 uM incubated for 1 hrs under dark condition by DCFH-DA staining based fluorescence analysis; type: functional, cell-based
[16] = test system: HCT-116; assay: Induction of ROS generation in human HCT-116 cells assessed as increase in oxidative stress at 5 uM preincubated with compound for 1 hrs followed by photoirradiation with 6 cool white lamps by DCFH-DA staining based fluorescence analysis; type: functional, cell-based
[17] = test system: HCT-116; assay: Antiproliferative activity against human HCT-116 cells assessed as inhibition of cell growth incubated for 72 hrs under photoirradiation with 6 cool white lamps for 15 mins at 4,28 and 52 hrs after compound addition by MTT assay; type: functional, cell-based; conditions: HCT-116, light or radiation study
[18] = Cytotoxicity against HEK293T cells assessed as inhibition of cell growth incubated for 72 hrs under photoirradiation with 6 cool white lamps for 15 mins at 4,28 and 52 hrs after compound addition by MTT assay; type: toxicity, cell-based, HEK-293T; conditions: human
[19] = Cytotoxicity against HEK293T cells assessed as inhibition of cell growth incubated for 72 hrs under dark condition by MTT assay; type: toxicity, cell-based, HEK-293T; conditions: human
[20] = Cytotoxicity against human HaCaT cells assessed as inhibition of cell growth incubated for 72 hrs under dark condition by MTT assay; type: toxicity, cell-based
[21] = Induction of singlet oxygen production in CH3CN assessed as decrease in fluorescence intensity at 450 nm under photoirradiation with visible light and measured after 30 sec by DPBF based assay relative to control; type: functional; parameters: scale not given: the % may be the effect or the level left
[22] = Induction of singlet oxygen production in CH3CN assessed as singlet oxygen quantum yield; type: functional
[23] = Induction of singlet oxygen production in CH3CN assessed as decrease in fluorescence intensity at 455 nm under photoirradiation with visible light and measured after 15 sec by DPBF based assay relative to control; type: functional; parameters: scale not given: the % may be the effect or the level left
[24] = Induction of singlet oxygen production in CH3CN assessed as decrease in fluorescence intensity at 455 nm under photoirradiation with visible light and measured after 1 min by DPBF based assay relative to control; type: functional; parameters: scale not given: the % may be the effect or the level left
[25] = Induction of singlet oxygen production in CH3CN assessed as decrease in fluorescence intensity at 455 nm under photoirradiation with visible light and measured after 45 sec by DPBF based assay relative to control; type: functional; parameters: scale not given: the % may be the effect or the level left
[26] = Induction of singlet oxygen production in CH3CN assessed as decrease in fluorescence intensity at 455 nm under photoirradiation with visible light and measured after 30 sec by DPBF based assay relative to control; type: functional; parameters: scale not given: the % may be the effect or the level left

Activity [3]	Activity [6]	IC50 [7]	Activity [8]	Activity [9]	IC50 [10]	IC50 [11]	IC50 [12]	IC50 [13]	IC50 [17]	SMILES	Activity [1]	Activity [4]	Activity [5]	Activity [14]	Activity [15]	Activity [16]	Activity [21]	further results
75178 M⁻¹ cm⁻¹	522 nm	47000 nM	0.27	510 nm	≥ 100000 nM	200 nM	260 nM	≥ 100000 nM	340 nM	COc1cccc(COC(C)=O)c1OCC1=C2C(C)=CC(C)=[N+]2[B-](C)(C)n2c(C)cc(C)c21	1%	0.1	20.2%	14.9%	inactive	Active	6.9%	IC50 at 72 h [2]: 600 nM; IC50 at 72 h [18]: 1300 nM; IC50 at 72 h [19]: ≥ 100000 nM; IC50 at 72 h [20]: > 100000 nM
87209 M⁻¹ cm⁻¹	527 nm	14000 nM	0.33	510 nm	13000 nM	200 nM	130 nM	16100 nM	150 nM	CC1=CC(C)=[N+]2C1=C(COc1ccccc1CO)c1c(C)cc(C)n1[B-]2(C)C	1.1%	0.1	26.9%	18.9%	inactive	Active	8.8%	–
146706 M⁻¹ cm⁻¹	521 nm	27000 nM	0.28	510 nm	33000 nM	200 nM	190 nM	83000 nM	210 nM	CC(=O)OCc1ccccc1OCC1=C2C(C)=CC(C)=[N+]2[B-](C)(C)n2c(C)cc(C)c21	4.9%	0.1	32.3%	21.1%	inactive	Active	12.9%	–
–	–	–	–	–	–	–	–	–	–	C1=Cc2nc1c(-c1ccccc1)c1ccc([nH]1)c(-c1ccccc1)c1nc(c(-c3ccccc3)c3ccc([nH]3)c2-c2ccccc2)C=C1	–	–	–	–	–	–	–	Activity [22]: 0.5; Activity [23]: 43.3%; Activity [24]: 95.1%; Activity [25]: 84.2%; Activity [26]: 63%
